Assay results as given in article PMC8815882, “Screening the pandemic response box identified benzimidazole carbamates, Olorofim and ravuconazole as promising drug candidates for the treatment of eumycetoma” (PLoS Neglected Tropical Diseases, 2022).
Where two headings read alike, the source gives them in different places.

Tested on: M. mycetomatis genome strain MM55
Assay: CLSI M38-A2 based in vitro susceptibility screening (XTT or resazurin), growth at fixed concentration
Type: cell-based, Madurella mycetomatis
Conditions: Madurella mycetomatis; for Percent fungal survival at 100 µM: read-out: Percentage survival at 100um, 100 uM A (second replicate column)
[1] = replicate A, read-out: Percentage survival at 25um, 25 um A
[2] = replicate B, read-out: Percentage survival at 25um, 25 uM B
[3] = replicate C, read-out: Percentage survival at 25um, 25 uM C
[4] = mean of replicates, read-out: Percentage survival at 25um, 25 uM mean
[5] = mean of replicates, read-out: Percentage survival at 100um, 100 uM mean
[6] = replicate 1, read-out: Percentage survival at 100um, 100 uM A
[7] = replicate 2, read-out: Percentage survival at 100um, 100 uM A
[8] = replicate 3, read-out: Percentage survival at 100um, 100 uM A
[9] = mean, read-out: Percentage survival at 25um, 25 uM mean
[10] = mean, read-out: Percentage survival at 100um, 100 uM mean
[11] = replicate (first column), read-out: Percentage survival at 100um, 100 uM A
[12] = replicate (second column), read-out: Percentage survival at 100um, 100 uM A
[13] = replicate (third column), read-out: Percentage survival at 100um, 100 uM A
[14] = mean of three, M. mycetomatis MM55, read-out: Percentage survival at 25um, 25 uM mean
[15] = replicate A, M. mycetomatis MM55, read-out: Percentage survival at 25um, 25 um A
[16] = replicate B, M. mycetomatis MM55, read-out: Percentage survival at 25um, 25 uM B
[17] = replicate C, M. mycetomatis MM55, read-out: Percentage survival at 25um, 25 uM C
[18] = mean of three, M. mycetomatis MM55, read-out: Percentage survival at 100um, 100 uM mean
[19] = replicate 1, M. mycetomatis MM55, read-out: Percentage survival at 100um, 100 uM A (first replicate column)
[20] = replicate 2, M. mycetomatis MM55
[21] = replicate 3, M. mycetomatis MM55, read-out: Percentage survival at 100um, 100 uM A (third replicate column)

For CC(Cc1ccccc1)C(=O)Nc1ccc(Cl)cc1C(=O)O (centres unmarked) [MMV1579781], the activity at 25 µM (mean of three replicates, read-out: Percentage survival at 25um, 25 uM mean) was 92.5%, the activity at 25 µM [1] was 104% and the activity at 25 µM [2] was 93.1%. For the same molecule, the activity at 25 µM [3] was 80.7%, the activity at 100 µM (mean of three replicates, read-out: Percentage survival at 100um, 100 uM mean) was 85.9% and the activity at 100 µM (replicate 1, read-out: Percentage survival at 100um, 100 uM A (first replicate column)) was 87.4%. The Percent fungal survival at 100 µM (replicate 2) was 82.1% and the activity at 100 µM (replicate 3, read-out: Percentage survival at 100um, 100 uM A (third replicate column)) was 88.1%.
With Cc1cccc(CC(=O)N[C@H]2CCOC2=O)c1 [MMV1579782] the activity at 25 µM [4] was 94%, the activity at 25 µM [1] was 95.3% and the activity at 25 µM [2] was 93.9%. The activity at 25 µM [3] was 92.9%, the activity at 100 µM [5] was 90.9% and the activity at 100 µM [6] was 95.1%. It also gave an activity at 100 µM [7] of 88.4% and an activity at 100 µM [8] of 89.2%.
CCCCSc1nc(N)c2[nH]c(=O)c(=O)n(Cc3ccccc3)c2n1 [MMV1579783] was tested, and the activity at 25 µM [9] was 74.7%, the activity at 25 µM [1] was 95.5% and the activity at 25 µM [2] was 58.6%. For the same molecule, the activity at 25 µM [3] was 70%, the activity at 100 µM [10] was 54.9% and the activity at 100 µM [11] was 84%. The activity at 100 µM [12] was 5.11% and the activity at 100 µM [13] was 75.6%.
O=C(Nc1ccccc1C(=O)O)c1cccc(Oc2ccccc2)c1 [MMV1579784] showed an activity at 25 µM [14] of 90.7%, an activity at 25 µM [15] of 75.3% and an activity at 25 µM [16] of 85.5%. For the same molecule, the activity at 25 µM [17] was 111%, the activity at 100 µM [18] was 90.8% and the activity at 100 µM [19] was 88.1%. The Percent fungal survival at 100 µM [20] was 112% and the activity at 100 µM [21] was 72.2%.
Molecule N#CCN1C(=O)COc2cc(F)c(N3C(=O)c4ccccc4C3=O)cc21 [MMV1579785] has an activity at 25 µM [4] of 81.2%, an activity at 25 µM [1] of 78.3% and an activity at 25 µM [2] of 91.5%. For the same molecule, the activity at 25 µM [3] was 73.8%, the activity at 100 µM [5] was 88.3% and the activity at 100 µM [6] was 83.8%. For the same molecule, the activity at 100 µM [7] was 94.2% and the activity at 100 µM [8] was 87%.
NCCCc1ccccc1C(=O)Nc1ncc([N+](=O)O)s1 [MMV1579786] gave an activity at 25 µM [14] of 82.7%, an activity at 25 µM [15] of 85.5% and an activity at 25 µM [16] of 82.6%. For the same molecule, the activity at 25 µM [17] was 80.1%, the activity at 100 µM [18] was 76.6% and the activity at 100 µM [19] was 71.4%. The Percent fungal survival at 100 µM [20] was 83.2% and the activity at 100 µM [21] was 75.1%.
With O=C(CP(=O)(O)O)NCCc1cccc(Oc2ccccc2)c1 [MMV1579787] the activity at 25 µM [9] was 79.8%, the activity at 25 µM [1] was 84.6% and the activity at 25 µM [2] was 81.7%. The activity at 25 µM [3] was 73.2%, the activity at 100 µM [10] was 46.3% and the activity at 100 µM [11] was -0.0188%. The activity at 100 µM [12] was 65.7% and the activity at 100 µM [13] was 73.3%.
For Cc1c(CN(C)C(=O)/C=C/c2cnc3c(c2)C(C)(C)C(=O)N3)oc2ccccc12 [MMV1579788], the activity at 25 µM [4] was 75.8%, the activity at 25 µM [1] was 69.6% and the activity at 25 µM [2] was 89.2%. For the same molecule, the activity at 25 µM [3] was 68.5%, the activity at 100 µM [5] was 90.5% and the activity at 100 µM [6] was 57.9%. The activity at 100 µM [7] was 71.3% and the activity at 100 µM [8] was 142%.
N=C(N)c1ccc(COc2ccc(Cl)cc2)cc1 [MMV1579844] gave an activity at 25 µM [14] of 73%, an activity at 25 µM [15] of 69.6% and an activity at 25 µM [16] of 72.8%. It also gave an activity at 25 µM [17] of 76.5%, an activity at 100 µM [18] of 73.6% and an activity at 100 µM [19] of 55.9%. It also gave a Percent fungal survival at 100 µM [20] of 97.7% and an activity at 100 µM [21] of 67.2%.
O=C(NCc1cccc2ccccc12)c1cccs1 [MMV1579845] was tested, and the activity at 25 µM [9] was 55.9%, the activity at 25 µM [1] was 59.6% and the activity at 25 µM [2] was 48.9%. For the same molecule, the activity at 25 µM [3] was 59.3%, the activity at 100 µM [10] was 35% and the activity at 100 µM [11] was 90%. It also gave an activity at 100 µM [12] of 6.29% and an activity at 100 µM [13] of 8.86%.
